Results taken from the supplement of paper PMC10307832.

Columns and labels:
Test in all cases: relative viability (nuclei count vs DMSO), 5 days (fraction); higher = more cells survive
Metformin + Lapatinib = compound: CN(C)C(=N)NC(=N)N [Metformin] + CS(=O)(=O)CCNCc1ccc(-c2ccc3ncnc(Nc4ccc(OCc5cccc(F)c5)c(Cl)c4)c3c2)o1 [Lapatinib] (partner 2 µM)
Method in brief: (§1)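 After 5 days of treatment, lung cancer cells in 1536-well plates were fixed and stained in a single step (final 0.05% Triton X-100, 1% formaldehyde, 1 ug/ml Hoechst) and their nuclei counted on 4× images. Treatment had been applied by pin tool the day after seeding as one drug alone or as a fixed anchor-drug dose with five library-drug doses (not always all listed) in √10 steps. Relative viability is the nuclei count of treated wells divided by that of vehicle wells, and values are medians of duplicate plates.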

Metformin + Olaparib = compound: CN(C)C(=N)NC(=N)N [Metformin] + O=C(c1cc(Cc2n[nH]c(=O)c3ccccc23)ccc1F)N1CCN(C(=O)C2CC2)CC1 [Olaparib] (partner 8 µM)
Method in brief: as §1

Apatinib + Tozasertib = compound: N#CC1(c2ccc(NC(=O)c3cccnc3NCc3ccncc3)cc2)CCCC1 [Apatinib] + Cc1cc(Nc2cc(N3CCN(C)CC3)nc(Sc3ccc(NC(=O)C4CC4)cc3)n2)n[nH]1 [Tozasertib] (partner 0.1 µM)
Method in brief: as §1

Apatinib + Decitabine = compound: N#CC1(c2ccc(NC(=O)c3cccnc3NCc3ccncc3)cc2)CCCC1 [Apatinib] + Nc1ncn([C@H]2C[C@H](O)[C@@H](CO)O2)c(=O)n1 [Decitabine] (partner 2 µM)
Method in brief: as §1

Cell Line	relative viability (Metformin + Lapatinib; first compound 10 µM)	relative viability (Metformin + Lapatinib; first compound 31.62 µM)	relative viability (Metformin + Lapatinib; first compound 100 µM)	relative viability (Metformin + Lapatinib; first compound 316.23 µM)	relative viability (Metformin + Lapatinib; first compound 1000 µM)	relative viability (Metformin + Olaparib; first compound 10 µM)	relative viability (Metformin + Olaparib; first compound 31.62 µM)	relative viability (Metformin + Olaparib; first compound 100 µM)	relative viability (Metformin + Olaparib; first compound 316.23 µM)	relative viability (Metformin + Olaparib; first compound 1000 µM)	relative viability (Apatinib + Tozasertib; first compound 0.08 µM)	relative viability (Apatinib + Tozasertib; first compound 0.253 µM)	relative viability (Apatinib + Tozasertib; first compound 0.8 µM)	relative viability (Apatinib + Tozasertib; first compound 2.53 µM)	relative viability (Apatinib + Tozasertib; first compound 8 µM)	relative viability (Apatinib + Decitabine; first compound 0.08 µM)	relative viability (Apatinib + Decitabine; first compound 0.253 µM)	relative viability (Apatinib + Decitabine; first compound 0.8 µM)	relative viability (Apatinib + Decitabine; first compound 2.53 µM)	relative viability (Apatinib + Decitabine; first compound 8 µM)
SK-MES-1	0.452	0.488	0.516	0.463	0.485	0.305	0.352	0.406	0.381	0.363	0.972	0.928	0.729	0.77	0.484	0.404	0.36	0.488	0.975	0.903
NCI-H2405	0.932	1.13	1.01	1.07	0.556		0.905	0.813	0.635	0.506	0.911	0.759	0.685	0.607	0.604	0.83	0.854	0.711	0.712	0.776
NCI-H1734	1.03	1.04	1.09	0.991	1.14	0.473	0.636	0.584	0.501	0.616	0.246	0.283	0.219	0.231	0.231	0.532	0.549	0.482	0.563	0.623
NCI-H1915		1.07	0.973	0.976	1		0.24	0.228	0.222	0.244	0.422	0.445	0.43	0.35	0.267	0.296	0.266	0.265	0.339	0.388
NCI-H650	1.22	1.04	0.887	0.799	0.942	0.315	0.296	0.396	0.316	0.368	0.769	0.777	0.724	0.644	0.486	0.35	0.331	0.332	0.418	0.626
NCI-H2009	0.574	0.98	1.01	0.889	0.991	0.612	0.69	0.604	0.568	0.705	0.856	0.792	0.687	0.58	0.38	0.367	0.411	0.35	0.508	0.581
NCI-H23	0.998	1.14	1.05	0.762	1.11	0.252	0.299	0.279	0.26	0.293	0.374	0.516	0.339	0.243	0.197	0.32	0.333	0.304	0.332	0.475
NCI-H2087	0.597	0.902	1.02	1.06	0.895	0.316	0.453	0.414	0.426	0.473	0.241	0.223	0.215	0.179	0.143	0.272	0.285	0.331	0.239	0.236
NCI-H358	0.409	0.671	0.616	0.58	0.602	0.394	0.537	0.569	0.412	0.424	0.113	0.103	0.0953	0.108	0.0888	0.225	0.219	0.24	0.218	0.316
ABC-1	1.53	1.12	1.4	1.59	0.851		0.817	1.08	0.218	0.36		0.177	0.165	0.178	0.191		1.04	1.19	1.21	0.895
PC-14	0.432	0.438	0.37	0.36	0.372	0.233	0.247	0.259	0.225	0.222	0.7	0.65	0.536	0.562	0.493	0.28	0.293	0.189	0.228	0.28
NCI-H596	1.18	1.22	1.07	1.06	1.2	0.817	0.795	0.78	0.74	0.734	1.05	0.965	0.854	0.705	0.631	1	1.18	0.916	1.04	1.08
LOU-NH91	0.784	0.775	0.725	0.755	0.71	0.859	0.894	0.865	0.883	0.845	0.741	0.729	0.618	0.601	0.546	0.85	0.827	0.732	0.741	0.776
LU99A	0.92	0.904	0.837	0.864	0.985	0.203	0.251	0.202	0.232	0.241	0.325	0.317	0.276	0.231	0.203	1.01	1.01	0.843	0.895	0.774
NCI-H1355	0.884	0.955	0.946	0.982	1.06	0.696	0.715	0.713	0.679	0.757	0.576	0.611	0.474	0.33	0.217	0.35	0.349	0.39	0.367	0.447
NCI-H2023		0.975	0.74		0.764	0.332	0.366	0.282	0.344	0.31	0.43	0.307	0.195	0.162	0.135	0.233	0.261	0.269	0.307	0.472
NCI-H2347	0.582	0.881	1.04	0.832	1	0.585	0.506	0.376	0.465	0.512	0.504	0.651	0.604	0.428	0.466	0.666	0.592	0.67	0.674	0.804

Cell Line	relative viability (Metformin + Lapatinib; first compound 10 µM)	relative viability (Metformin + Lapatinib; first compound 31.62 µM)	relative viability (Metformin + Lapatinib; first compound 100 µM)	relative viability (Metformin + Lapatinib; first compound 316.23 µM)	relative viability (Metformin + Lapatinib; first compound 1000 µM)	relative viability (Metformin + Olaparib; first compound 10 µM)	relative viability (Metformin + Olaparib; first compound 31.62 µM)	relative viability (Metformin + Olaparib; first compound 100 µM)	relative viability (Metformin + Olaparib; first compound 316.23 µM)	relative viability (Metformin + Olaparib; first compound 1000 µM)	relative viability (Apatinib + Tozasertib; first compound 0.08 µM)	relative viability (Apatinib + Tozasertib; first compound 0.253 µM)	relative viability (Apatinib + Tozasertib; first compound 0.8 µM)	relative viability (Apatinib + Tozasertib; first compound 2.53 µM)	relative viability (Apatinib + Tozasertib; first compound 8 µM)	relative viability (Apatinib + Decitabine; first compound 0.08 µM)	relative viability (Apatinib + Decitabine; first compound 0.253 µM)	relative viability (Apatinib + Decitabine; first compound 0.8 µM)	relative viability (Apatinib + Decitabine; first compound 2.53 µM)	relative viability (Apatinib + Decitabine; first compound 8 µM)
LC-2-ad		1.03	0.853	0.799	1		0.537	0.562	0.505	0.587	0.516	0.522	0.466	0.462	0.446	0.862	0.776	0.792	0.668	0.698
NCI-H1793	0.733	0.773	0.902	0.73	0.759	0.702	1.1	0.813	0.781	0.901	0.38	0.369	0.245	0.209	0.226	0.555	0.535	0.516	0.541	0.564
NCI-H661	0.58	0.783	0.811	0.688	0.57	0.648	0.718	0.715	0.694	0.711	0.333	0.325	0.357	0.388	0.392	0.615	0.543	0.542	0.581	0.599
NCI-H1666	0.57	0.557	0.601	0.535	0.67	0.78	0.76	0.834	0.726	0.764	0.595	0.583	0.501	0.615	0.526	0.756	0.727	0.692	0.737	0.612
SK-LU-1	0.632	0.88	0.844	0.694	0.812	0.356	0.375	0.502	0.389	0.398	0.337	0.436	0.28	0.275	0.243	0.724	0.782	0.671	0.667	0.675
HOP-62	0.725	1.05	0.891	0.777	1.05	0.189	0.2	0.189	0.251	0.221	0.442	0.403	0.329	0.257	0.192	0.221	0.212	0.2	0.428	0.519
BEN	0.976	1.12	1.15	0.925	0.583	1.11	1.18	1.23	1.1	0.708	0.551	0.601	0.492	0.452	0.42	0.694	0.668	0.672	0.693	0.723
HCC-366	1.05	1.05	1	1.07	1.01	0.255	0.21	0.213	0.203	0.213	0.11	0.0735	0.0616	0.0574	0.0476	0.395	0.365	0.309	0.353	0.432
EMC-BAC-2	0.886	0.951	0.891	0.843	0.925	0.381	0.394	0.401	0.339	0.361	0.334	0.307	0.245	0.229	0.194		0.967	0.925	0.954	1.01
COR-L 105	0.415	0.36	0.462	0.426	0.405	0.804	0.625	0.645	0.725	0.694	0.387	0.313	0.355	0.351	0.304	0.706	0.716	0.631	0.711	0.632
A-427	0.943	1.06	1.04	0.994	0.951	0.645	0.773	0.708	0.625	0.447	0.178	0.241	0.175	0.188	0.147	0.604	0.583	0.533	0.575	0.618
NCI-H520	0.849	1.07	0.948	0.768	0.892	0.276	0.264	0.276	0.274	0.259	0.445	0.427	0.437	0.409	0.417	0.544	0.476	0.559	0.5	0.486
NCI-H3122	0.871	0.872	0.89	0.846	0.819	0.442	0.555	0.587	0.54	0.507	0.551	0.368	0.432	0.374	0.367	0.505	0.431	0.44	0.495	0.433
UMC-11	0.899	1.04	1.1	0.973	1.17	0.337	0.269	0.31	0.332	0.276	0.193	0.194	0.198	0.211	0.198	0.711	0.64	0.575	0.714	0.629
PC-3 [JPC-3]	0.453	0.46	0.441	0.435	0.447	0.95	0.932		0.741	0.69	0.904	0.871	0.78	0.814	0.681		0.869	0.763	0.908	1.04
EKVX	0.185	0.16	0.176	0.222	0.196		0.729	0.769	0.71	0.683	0.369	0.404	0.395	0.224	0.135	0.352	0.291	0.339	0.309	0.298
